From patent US10010525B2, “Methods of inducing anesthesia” (The Regents of the University of California, priority 2012, dated 2018)

Columns and labels:
[1] = Loss of righting reflex in mice (inhaled agent); type: in vivo; details: mice
Procedure: HFCP caused loss of righting reflex (a surrogate measure of unconsciousness) in 4 healthy ND4 mice at 1.0±0.2 (mean±SD) percent of 1 atmosphere. […] After 2 hours of anesthesia, mice were awake after about 1 minute of discontinuing HFCP administration. […] Despite a lack of NMDA receptor effects, 1,1,2,2,3,3,4-heptafluorocyclopentane is able to produce the desired pharmacologic endpoints of unconsciousness and immobility that appears similar to desirable effects produced by conventional agents.

[2] = aqueous phase; Tadpole; cited from earlier work
[3] = system: 3-transmembrane (TM3) and 4-transmembrane (TM4) receptors; details: grouped by calculated molar solubility in unbuffered water at 25° C.; cited from earlier work

FC1C(F)(F)C(F)(F)OC1(F)C(F)(F)F (stereo not shown) [2,2,3,3,4,5-hexafluorotetrahydro-5-(trifluoromethyl)-furan]
concentration causing loss of righting reflex [1]: 1-10%

ClC(Cl)Cl [Chloroform]
EC50 [2]: 1300 µM

Cc1cccc([C@H](C)c2cnc[nH]2)c1C [Dexmedetomidine]
EC50 [2]: 7 µM

CCOCC [Diethyl ether]
ion channel modulation, TM3 versus TM4 receptors (FIG. 2) [3]: modulate both 3-transmembrane (TM3) and TM4 receptors
EC50 [2]: 25000 µM

CCOC(=O)c1cncn1[C@H](C)c1ccccc1 [Etomidate]
ion channel modulation, TM3 versus TM4 receptors (FIG. 2) [3]: modulate 4-transmembrane receptors (TM4) or neither receptor type
EC50 [2]: 3 µM

FC(F)(F)C(Cl)Br (stereo not shown) [Halothane]
ion channel modulation, TM3 versus TM4 receptors (FIG. 2) [3]: modulate both 3-transmembrane (TM3) and TM4 receptors
EC50 [2]: 230 µM

FC(F)OC(Cl)C(F)(F)F (stereo not shown) [Isoflurane]
ion channel modulation, TM3 versus TM4 receptors (FIG. 2) [3]: modulate both 3-transmembrane (TM3) and TM4 receptors
EC50 [2]: 290 µM

COC(F)(F)C(Cl)Cl [Methoxyflurane]
ion channel modulation, TM3 versus TM4 receptors (FIG. 2) [3]: modulate both 3-transmembrane (TM3) and TM4 receptors
EC50 [2]: 210 µM

FC1(F)OC(F)(F)C(F)(F)C(F)(F)C1(F)F [Perfluorotetrahydropyran]
concentration causing loss of righting reflex [1]: 1-10%

C[C@]12N[C@H](Cc3ccccc31)c1ccccc12 [dizocilpine]
ion channel modulation, TM3 versus TM4 receptors (FIG. 2) [3]: modulate both 3-transmembrane (TM3) and TM4 receptors

FC(F)OC(F)(F)C(F)Cl (stereo not shown) [enflurane]
ion channel modulation, TM3 versus TM4 receptors (FIG. 2) [3]: modulate both 3-transmembrane (TM3) and TM4 receptors

CCO [ethanol]
ion channel modulation, TM3 versus TM4 receptors (FIG. 2) [3]: modulate both 3-transmembrane (TM3) and TM4 receptors

Cc1ncc2n1-c1ccc(Cl)cc1C(c1ccccc1F)=NC2 [midazolam]
ion channel modulation, TM3 versus TM4 receptors (FIG. 2) [3]: modulate 4-transmembrane receptors (TM4) or neither receptor type

[N-]=[N+]=O [nitrous oxide]
ion channel modulation, TM3 versus TM4 receptors (FIG. 2) [3]: modulate both 3-transmembrane (TM3) and TM4 receptors

CCCCCCCCC [nonane]
ion channel modulation, TM3 versus TM4 receptors (FIG. 2) [3]: modulate 4-transmembrane receptors (TM4) or neither receptor type

FCOC(C(F)(F)F)C(F)(F)F [sevoflurane]
ion channel modulation, TM3 versus TM4 receptors (FIG. 2) [3]: modulate both 3-transmembrane (TM3) and TM4 receptors

CCCCCCCCCCCO [undecanol]
ion channel modulation, TM3 versus TM4 receptors (FIG. 2) [3]: modulate 4-transmembrane receptors (TM4) or neither receptor type
